Experimental data: patent US12673039B2, “Methods of inducing autophagy using coumarin derivatives and related compounds” (Buck Institute for Research on Aging, priority 2019, dated 2026)

Experiments:
[1] = test system: TFEB; assay: qRT-PCR of tfeb and its targets in N27 neuronal cells; format: cell-based, rat
Protocol: FIG. 18, panels A-F: AIC106 (Autophagy Inducing Coumarin-106) induces transcription of TFEB and its targets in vitro in rat N27 neuronal cells and in vivo in C. elegans. Panel A) Relative fold change in TFEB promoter activity compared to DMSO-control was determined by quantifying luciferase activity in supernatants collected from rat N27 neuronal cells post-24 hour treatment with C1 (AIC106), D1 and D2. [n=3 independent experiments (mean±SEM), **p<0.01, by one-way ANOVA with Dunnett's multiple comparisons test]. Panel B) Chemical structure of AIC106 and its structural derivative D1 and D2. Panel C) Relative fold change in mRNA of tfeb and its targets compared to DMSO-control were quantified using qRT-PCR in N27 neuronal cells post-24 hour treatment with AIC106 [N=3 independent experiments (mean±SD). *p<0.05, **p<0.01 and ****p<0.0001, by two-way ANOVA with Sidak's multiple comparisons test]. Panel D) Changes in HLH-30 expression were measured by quantifying GFP intensity in an individual GFP-tagged HLH-30 strain (MAH235) post-24 hours treatment with AIC106 and DMSO-control. […] Panel E) HLH-30; GFP (MAH235) were monitored by fluorescence microscopy. Panel F) Relative fold change in mRNA of hlh-30 and its targets compared to DMSO-control were quantified using qRT-PCR in young adult wild type N2 worms post-24 hours treatment with AIC106. […]

[2] = test system: UA44 worms; assay: Dopaminergic neuronal loss in UA44 worms expressing human α-synuclein; format: in vivo, C. elegans
From the text: Panel A) Dopaminergic neuronal loss in day-5 UA44 worms was quantified by scoring percentage of worms with intact 4-CEP neurons in AIC106 and DMSO-control treatment.

[3] = test system: SH-SY5Y cells; assay: Immunoblot of TFEB, cathepsin-D and SHP-1 in SH-SY5Y cells; format: cell-based, human; details: 24 hours
Protocol: FIG. 23, panels A-H: FXR modulation enhances HLH-30 expression in human neuronal SH-SY5Y cells. Panel A) Effects of AIC106 on human FXR activity was determined in a mammalian one-hybrid based kit assay by quantifying changes in the luciferase activity of FXR ligand (GW4064, GW) induced treatment. [N=3 independent experiments (mean±SD). ****p<0.0001, by one-way ANOVA with Tukey's multiple comparisons test]. Panel B) Protein expression of TFEB, cathepsin-D (CAT-D) and small heterodimer partner-1 (SHP-1) was determined by immunoblot in neuronal SH-SY5Y cells post-24 hours of treatment with AIC106 and DMSO-control. Panel C) AIC106 enhances autophagic flux in neuronal SH-SY5Y cells. Autophagic flux in DMSO-control and AIC106 treated neuronal cells was determined by quantifying levels of autophagosome specific LC3-II protein both in presence and absence of autophagy inhibitor bafliomycin A1 (Baf A, 10 nM). Panel D) Relative fold change in the band intensity of LC3-II protein, normalized to loading control actin. Values are relative to DMSO-control. [N=3 independent experiments (mean±SD). *p<0.05 and ****p<0.0001, by one-way ANOVA with Tukey's multiple comparisons test]. Panel E) Effects of AIC106 treatment for 72 hours on basal TAU and phosphorylated-TAU in differentiated human neuronal SH-SHY5Y and heterozygous TSC1(+/−) mutant SH-SY5Y neuronal cells were quantitated by immunoblotting following total protein extraction. Relative fold change in the band intensity compared to SH-SY5Y control treatment for (panel F) total TAU and (panel G) phosphorylated-TAU, normalized to loading control GAPDH. [N=3 independent experiments (mean±SD). *p<0.05 and **p<0.01, by one-way ANOVA with Sidak's multiple comparisons test]. Panel H) AIC106 treatment improves viability and health of differentiated SH-SY5Y-TSC1(+/−) neuronal cells. Images were taken post-96 hours after treatment of differentiated neuronal cells with AIC106.
FIG. 30, panels A-B: FXR modulation enhances HLH-30 expression in human neuronal SH-SY5Y cell. Panel A) TFEB expression in SH-SY5Y cells was determined by immunoblot against TFEB in protein lysates collected after 24 hours of treatment with FXR agonist GW4064 and DMSO control. Panel B) Phosphorylated-TAU levels in SH-SY5Y-P301L-TAU cells was determined by immunoblot against (Ser202, Thr205) in protein lysates collected after 24 hours of treatment with known FXR antagonist Z-gugglsterone (z-GG), DY268 and DMSO control.

## O=c1oc2c3c4c(cc2c2c1CCC2)CCCN4CCC3 [C1, 2,3,6,7,10,11-Hexahydro-1H,5H-cyclopenta(3,4)(1)benzopyrano(6,7,8-ij)quinolizin-12(9H)-one]
[1]; 24 hour treatment
  TFEB mRNA levels: increased TFEB mRNA levels
[1]; 24 hour treatment (FIG. 18, panel C)
  downstream TFEB target genes expression: increased expression of downstream TFEB target genes
[2]; strain expressing human α-synuclein within dopaminergic neurons
  neuronal loss: prevented neuronal loss
[2]; worms treated with hlh-30 RNAi
  neuroprotection: failed to show any neuroprotection
[3]
  TFEB protein expression: increased expression TFEB protein
  cathepsin D (CATD) protein expression: enhanced protein expression of TFEB target gene cathepsin D
  small heterodimer partner-1 (SHP-1) expression: reduced expression of ligand-bound FXR target, small heterodimer partner-1
